From patent publication US10968172B2, “USP30 inhibitors” (Mitobridge, Inc., priority 2017, dated 2021)

Molecular target: USP30 (Homo sapiens (Human), UniProt Q70CQ3)
Assay: In vitro biochemical assay for USP30 enzyme (Ubiquitin-Rhodamine110 cleavage, fluorescence)
Details: 20 nM USP30, 15 min pre-incubation, 100 nM Ub rhodamine substrate, 2 hrs at room temperature

Sequence of USP30 (Q70CQ3 whole entry): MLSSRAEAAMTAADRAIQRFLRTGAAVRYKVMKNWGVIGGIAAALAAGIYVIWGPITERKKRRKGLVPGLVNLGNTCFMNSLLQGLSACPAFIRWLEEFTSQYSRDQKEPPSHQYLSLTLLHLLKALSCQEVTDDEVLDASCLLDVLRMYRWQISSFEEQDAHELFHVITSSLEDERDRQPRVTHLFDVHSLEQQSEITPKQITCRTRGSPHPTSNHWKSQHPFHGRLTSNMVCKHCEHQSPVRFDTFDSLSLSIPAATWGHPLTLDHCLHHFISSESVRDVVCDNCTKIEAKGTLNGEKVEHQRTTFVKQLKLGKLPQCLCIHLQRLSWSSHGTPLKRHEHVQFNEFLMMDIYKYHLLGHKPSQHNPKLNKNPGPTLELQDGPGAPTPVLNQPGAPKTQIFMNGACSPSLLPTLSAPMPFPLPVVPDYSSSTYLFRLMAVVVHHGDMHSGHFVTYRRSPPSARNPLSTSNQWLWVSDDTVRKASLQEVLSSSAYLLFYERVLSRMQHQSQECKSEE

CC(C)(C)NS(=O)(=O)c1ccc(NC(=O)[C@H](Cc2cccs2)NC(=O)c2ccc(F)cc2)cc1 [Compound 19g, (S)-N-(1-((4-(N-(tert-butyl)sulfamoyl)phenyl)amino)-1-oxo-3-(thiophen-2-yl)propan-2-yl)-4-fluorobenzamide]
IC50: 19 nM

CC(C)(C)NS(=O)(=O)c1cccc2c(NC(=O)[C@H](Cc3cccs3)NC(=O)c3ccccc3)cccc12 [Compound 7k, (S)-N-(1-((5-(N-(tert-butyl)sulfamoyl)naphthalen-1-yl)amino)-1-oxo-3-(thiophen-2-yl)propan-2-yl)benzamide]
IC50: 230 nM

CC(C)(C)NS(=O)(=O)c1cccc2c(NC(=O)[C@H](Cc3ccccc3)NC(=O)C3CCC(F)(F)CC3)cccc12 [Compound 4n, (S)—N-(1-((5-(N-(tert-butyl)sulfamoyl)naphthalen-1-yl)amino)-1-oxo-3-phenylpropan-2-yl)-4,4-difluorocyclohexane-1-carboxamide]
IC50: 98 nM

CC(C)(C)NS(=O)(=O)c1ccc(NC(=O)[C@H](Cc2ccccc2)NC(=O)[C@@H]2CCCN2)cc1 [Compound 10i, (S)-N-((S)-1-((4-(N-(tert-butyl)sulfamoyl)phenyl)amino)-1-oxo-3-phenylpropan-2-yl)pyrrolidine-2-carboxamide]
IC50: > 10000 nM

CC(C)(C)NS(=O)(=O)c1cccc2c(NC(=O)[C@H](Cc3ccccc3Cl)NC(=O)c3ccccc3)cccc12 [Compound 7d, (S)-N-(1-((5-(N-(tert-butyl)sulfamoyl)naphthalen-1-yl)amino)-3-(2-chlorophenyl)-1-oxopropan-2-yl)benzamide]
IC50: > 10000 nM

CC(C)(C)NS(=O)(=O)c1ccc(NC(=O)[C@H](Cc2ccccc2)NC(=O)c2ccc(F)cc2)cc1 [Compound 10e]
IC50: 17 nM

CC(C)(C)NS(=O)(=O)c1cccc2c(NC(=O)[C@H](Cc3ccccc3)NC(=O)c3ccc(O)cc3)cccc12 [Compound 4w, (S)-N-(1-((5-(N-(tert-butyl)sulfamoyl)naphthalen-1-yl)amino)-1-oxo-3-phenylpropan-2-yl)-4-hydroxybenzamide]
IC50: > 10000 nM

CC(C)(C)NS(=O)(=O)c1cccc2c(NC(=O)[C@H](Cc3ccccc3)NC(=O)C3CCCC3)cccc12 [Compound 4l, (S)-N-(1-((5-(N-(tert-butyl)sulfamoyl)naphthalen-1-yl)amino)-1-oxo-3-phenylpropan-2-yl)cyclopentanecarboxamide]
IC50: 366 nM

CC(C)(C)NS(=O)(=O)c1cccc2c(NC(=O)[C@H](Cc3ccccc3)NC(=O)/C=C/c3ccccc3)cccc12 [Compound 19q, (S)-N-(1-((5-(N-(tert-butyl)sulfamoyl)naphthalen-1-yl)amino)-1-oxo-3-phenylpropan-2-yl)cinnamamide]
IC50: > 10000 nM

CC(C)(C)NS(=O)(=O)c1ccc(NC(=O)[C@H](Cc2ccc(F)cc2)NC(=O)c2ccc(F)cc2)cc1 [Compound 19k, (S)-N-(1-((4-(N-(tert-butyl)sulfamoyl)phenyl)amino)-3-(4-fluorophenyl)-1-oxopropan-2-yl)-4-fluorobenzamide]
IC50: 26 nM

CC1CCC(C(=O)N[C@@H](Cc2ccccc2)C(=O)Nc2cccc3c(S(=O)(=O)NC(C)(C)C)cccc23)CC1 (stereo partly drawn) [Compound 4t, (S)-N-(1-((5-(N-(tert-butyl)sulfamoyl)naphthalen-1-yl)amino)-1-oxo-3-phenylpropan-2-yl)-4-methylcyclohexane-1-carboxamide]
IC50: > 10000 nM

CC(C)(C)NS(=O)(=O)c1cccc2c(NC(=O)[C@H](Cc3ccccc3)NC(=O)c3ccccc3)cccc12 [Compound 4b, (S)—N-(1-((5-(N-(tert-butyl)sulfamoyl)naphthalen-1-yl)amino)-1-oxo-3-phenylpropan-2-yl)benzamide]
IC50: 273 nM

CC(C)(C)NS(=O)(=O)c1cccc2c(NC(=O)[C@H](Cc3ccccc3)NC(=O)c3nccs3)cccc12 [Compound 4q, (S)-N-(1-((5-(N-(tert-butyl)sulfamoyl)naphthalen-1-yl)amino)-1-oxo-3-phenylpropan-2-yl)thiazole-2-carboxamide]
IC50: 180 nM
